{"source": "patent US8703825B2", "about": "“Compounds, use thereof as medicaments, and method of preparation thereof” (Universite de Lorraine, priority 2008, dated 2014)", "key": {"[1]": {"test_system": "Gram-positive and Gram-negative bacteria (reference strains and clinical isolates)", "assay": "Antibacterial activity overall (MIC determination)", "type": "cell-based", "conditions": "summary of MIC results", "description": "According to the joint recommendations: • of the “Comite de l′Antibiogramme de la Société Française de Microbiologie” (Antibiogram Committee of the French Society of Microbiology) (CA-SFM) [CA-SFM. Communique 2007 (Edition of January 2007). http://www.sfm.asso.fr] and, • of the “Clinical and Laboratory Standards Institute” (CLSI, formerly “National Committee for Clinical Laboratory Standards” or NCCLS) [NCCLS. 2003. Methods for dilution antimicrobial susceptibility tests for bacteria that grow aerobically; approved standard M7-A6, 6th ed. National Committee for Clinical Laboratory Standards, Wayne, Pa., USA.], five reference bacterial strains were used for the study: Escherichia coli ATCC 25922, Pseudomonas aeruginosa ATCC 27853, Staphylococcus aureus ATCC 25923 & ATCC 29213 and Enterococcus faecalis ATCC 29212.\nThe study also included 5 clinical isolates, obtained from rectal samples and/or from haemoculture: • […] E. coli (EcR1), • methicillin-resistant S. aureus (mecA gene) (SaR1), • vancomycin-resistant E. faecium (vanB gene) (EfR1), • E. faecalis resistant to teicoplanin and to vancomycin (vanA gene) (EfR2), and • P. aeruginosa overexpressing an efflux pump (PaRl).\nProcedure for determining the Minimum Inhibitory Concentration (MIC)\nThe minimum inhibitory concentrations (MIC) were determined by the standardized method of microdilution in liquid medium (96-well microplate, U-shaped bottom, Greiner), in Mueller-Hinton broth, with a final inoculum of 10^5-10^6 CFU/mL, depending on the bacterial species, in accordance with the recommendations of the CLSI.\nFor the determination of MIC, bacterial suspensions are prepared from an isolated colony, taken from a Mueller-Hinton agar, taken up in 5 mL of Mueller-Hinton broth. After 24 h of growth, the bacterial suspensions are diluted in sterile distilled water in order to obtain an inoculum of 10^5-10^6 CFU/mL. The purity of the bacterial suspensions is tested by isolation on agar and Gram staining.\nThe results are the mean value of 4 independent experiments."}, "[2]": {"test_system": "HaCaT and/or MRC5 eukaryotic cells", "type": "cell-based, human", "description": "The eukaryotic cells used in our study are HaCaT cells (human keratinocytes), which were kindly supplied by the Pierre Fabre Institute (Toulouse, France); and MRC-5 cells (human embryonic fibroblasts), which were obtained from the company BioMérieux (Lyons, France). These cells are cultivated in DMEM (“Dulbecco's modified Eagle's medium”, Invitrogen 61965) for the HaCaT cells, and MEM (“modified Eagle's medium”, Invitrogen 41090); 10% of fetal calf serum (FCS, Invitrogen, 10270, Batch 40Q5150K) in a humid chamber at 37° C., under 5% CO2. The HaCaT and MRC-5 cells were seeded at 10^4 cells/well in 96-well plates (Sarstedt 831835). […]\nIt is based on the reduction of yellow tetrazolium salts to purple crystals of formazan, mainly by mitochondrial dehydrogenases. The quantity of formazan formed is proportional to the number of live cells. […] The absorbance is measured at 540 nm with a reference wavelength at 690 nm, using an ELISA plate reader (Multiskan E X, Thermo Electron Corporation, France). […]\nThe cytotoxicity test is based on incorporation of a vital dye, Neutral Red, in the lysosomes of the viable cells, after exposure of the cells to different concentrations of the test molecules. The quantity of dye, after extraction from the lysosomes, is quantified by means of a spectrophotometer and compared with that obtained in the case of “control” cells, not exposed to the test molecules. […]"}}, "note": "“Also recorded” adds a separate entry of the source."}
{"smiles": "[H]/N=C(\\N/C(=N/[H])NCCCCCCNC(=N)NC(=N)Nc1ccc(Cl)cc1)Nc1ccc(Cl)cc1", "note": "[CHX, chlorhexidine]", "values": [{"measurement": "antibacterial activity (in words)", "setting": "[1]", "result": "broad-spectrum antibacterial activity"}]}
{"smiles": "N=C(N)NCCc1ccc(OCCCCCCOc2ccc(CCNC(=N)N)cc2)cc1", "note": "[compound 6, 1,6-bis(4-(2-guanidinoethyl)phenoxy)hexane]", "values": [{"measurement": "effect on viability and cytotoxicity (in words)", "setting": "[2]", "result": "slightly less pronounced effect on viability and cytotoxicity"}, {"measurement": "antibacterial activity (in words)", "setting": "[1]", "result": "maintains comparable activity on the clinical isolates; also recorded: better overall than hexamidine and is comparable to that of chlorhexidine"}]}
